This note sets out measurements from paper PMC10906927, “Structure of the PCNA unloader Elg1-RFC” (Science Advances, 2024).

The test system of series [1] is T1, Elg1-RFC.
T1 construct: heteropentamer; 3xFLAG-Elg1 and Rfc5 (pLANT-2RIL) with Rfc2, Rfc3, Rfc4 (pET11a) co-expressed in E. coli BLR(DE3) (results text says expressed in yeast); anti-FLAG and MonoS; no tag removal told
Kind of series: cryo-EM structure, […] Å. In kind it is binding, Saccharomyces cerevisiae.

The test system of a further series is T2, Elg1-RFC–PCNA.
T2 construct: with Proliferating cell nuclear antigen
As to the kind of experiment: cryo-EM structure, […] Å (closed PCNA) and […] Å (cracked PCNA). As to conditions: glutaraldehyde cross-linked. The format is binding, Saccharomyces cerevisiae.

Series [2] has as its system T1, Elg1-RFC. As to the kind of experiment: […]-PCNA unloading from nicked plasmid, gel filtration. The format is biochemical, Saccharomyces cerevisiae. As to conditions: 2 mM AMP-PNP, 56 nM Elg1-RFC, 0.69 nM 32P-PCNA-DNA, 8 mM MgCl2, 100 mM NaCl, pH 7.5, 30 °C, 2 min; supports unloading without hydrolysis. In general terms: SEC sorts molecules by how far they enter the pores of the column.

Series [3] has as its target T3, Elg1 (enhanced levels of genome instability 1), subunit of Elg1-RFC (S. cerevisiae, UniProt Q12050 1-791).
T3 construct: Elg1 (enhanced levels of genome instability 1), S. cerevisiae; Stood in the assay as a subunit of the Elg1-RFC pentamer; also called 3xFLAG-Elg1; Elg1 subunit; source: E. coli BLR(DE3), co-expressed with Rfc2-5, purified as Elg1-RFC (anti-FLAG resin, MonoS)
T3 sequence (looked up): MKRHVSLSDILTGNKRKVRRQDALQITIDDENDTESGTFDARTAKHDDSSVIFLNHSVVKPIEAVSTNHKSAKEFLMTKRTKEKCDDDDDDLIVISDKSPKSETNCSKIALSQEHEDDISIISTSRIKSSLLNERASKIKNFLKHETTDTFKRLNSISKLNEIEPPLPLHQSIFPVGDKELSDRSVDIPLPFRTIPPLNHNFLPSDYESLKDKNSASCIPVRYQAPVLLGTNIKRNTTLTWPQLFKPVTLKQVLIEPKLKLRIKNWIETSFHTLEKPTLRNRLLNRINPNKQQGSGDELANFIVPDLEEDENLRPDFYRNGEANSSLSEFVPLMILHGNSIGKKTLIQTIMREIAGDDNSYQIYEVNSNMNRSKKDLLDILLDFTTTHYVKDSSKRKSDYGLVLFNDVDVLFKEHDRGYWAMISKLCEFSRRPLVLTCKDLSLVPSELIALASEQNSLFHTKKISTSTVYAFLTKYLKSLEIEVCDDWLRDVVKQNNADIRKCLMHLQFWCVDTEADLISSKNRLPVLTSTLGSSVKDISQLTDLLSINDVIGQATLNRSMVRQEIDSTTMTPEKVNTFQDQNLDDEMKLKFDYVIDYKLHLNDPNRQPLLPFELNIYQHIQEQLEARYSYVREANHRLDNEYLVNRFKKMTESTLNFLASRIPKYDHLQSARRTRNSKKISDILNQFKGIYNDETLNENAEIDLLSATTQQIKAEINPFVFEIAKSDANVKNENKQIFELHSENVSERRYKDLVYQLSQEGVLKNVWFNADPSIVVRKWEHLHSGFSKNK
As to the kind of experiment: cryo-EM structure; Elg1-RFC 2.9 uM, PCNA clamp 1.3 uM, 5'-tailed DNA 28.7 uM, ATPgammaS 0.5 mM, Mg-acetate 6.7 mM, ice-water bath, then cross-linked with glutaraldehyde and quenched with Tris; no DNA seen in the maps; closed and cracked PCNA ring. As to conditions: both partners purified.

Series [4] deals with T4, Rfc3, subunit of Elg1-RFC (S. cerevisiae, UniProt P38629 1-340).
T4 construct: Rfc3, S. cerevisiae replication factor C subunit 3; Stood in the assay as a subunit of the Elg1-RFC pentamer; source: E. coli BLR(DE3), co-expressed with Elg1 and Rfc2, 4, 5, purified as Elg1-RFC (anti-FLAG resin, MonoS)
T4 sequence: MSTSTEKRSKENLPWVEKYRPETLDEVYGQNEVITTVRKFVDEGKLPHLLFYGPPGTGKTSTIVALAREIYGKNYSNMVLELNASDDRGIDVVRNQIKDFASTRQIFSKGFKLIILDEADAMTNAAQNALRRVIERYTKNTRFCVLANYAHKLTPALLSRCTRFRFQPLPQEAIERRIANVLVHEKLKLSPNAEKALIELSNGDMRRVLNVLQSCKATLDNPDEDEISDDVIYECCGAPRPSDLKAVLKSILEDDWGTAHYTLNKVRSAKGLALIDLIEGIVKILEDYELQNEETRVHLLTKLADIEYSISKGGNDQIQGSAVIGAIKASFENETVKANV
Described as above. As to conditions: both partners purified.

The target of series [5] is T5, Rfc4, subunit of Elg1-RFC (S. cerevisiae, UniProt P40339 1-323).
T5 construct: Rfc4, S. cerevisiae replication factor C subunit 4; Stood in the assay as a subunit of the Elg1-RFC pentamer; source: E. coli BLR(DE3), co-expressed with Elg1 and Rfc2, 3, 5, purified as Elg1-RFC (anti-FLAG resin, MonoS)
T5 sequence: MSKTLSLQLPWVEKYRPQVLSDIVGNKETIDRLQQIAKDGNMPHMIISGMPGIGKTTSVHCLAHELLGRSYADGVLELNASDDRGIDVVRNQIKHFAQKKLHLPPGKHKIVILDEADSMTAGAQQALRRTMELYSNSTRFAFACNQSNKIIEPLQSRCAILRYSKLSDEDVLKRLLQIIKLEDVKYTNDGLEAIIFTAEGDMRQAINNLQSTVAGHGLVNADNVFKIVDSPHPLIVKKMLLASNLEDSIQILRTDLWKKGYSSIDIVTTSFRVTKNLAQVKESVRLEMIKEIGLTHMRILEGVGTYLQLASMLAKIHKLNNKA
Described as above. As to conditions: both partners purified.

Series [6] concerns the molecule itself. The series is described as above.
Where [7] appears, read: site in Rfc5, ADP not listed among added components.

T1 sequence (P40348 whole entry, one chain of several, further chain): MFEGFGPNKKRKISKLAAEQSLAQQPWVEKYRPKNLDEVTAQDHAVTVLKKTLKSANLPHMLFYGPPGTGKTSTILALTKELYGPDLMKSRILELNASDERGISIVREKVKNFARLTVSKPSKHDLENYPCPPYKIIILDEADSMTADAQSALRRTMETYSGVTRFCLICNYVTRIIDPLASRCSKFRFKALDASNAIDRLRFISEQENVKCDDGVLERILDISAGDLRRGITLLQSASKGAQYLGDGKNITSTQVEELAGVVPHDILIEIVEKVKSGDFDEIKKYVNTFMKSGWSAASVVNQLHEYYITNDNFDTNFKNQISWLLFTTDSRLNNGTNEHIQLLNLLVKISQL
T1 sequence (P38251 whole entry, one chain of several, further chain): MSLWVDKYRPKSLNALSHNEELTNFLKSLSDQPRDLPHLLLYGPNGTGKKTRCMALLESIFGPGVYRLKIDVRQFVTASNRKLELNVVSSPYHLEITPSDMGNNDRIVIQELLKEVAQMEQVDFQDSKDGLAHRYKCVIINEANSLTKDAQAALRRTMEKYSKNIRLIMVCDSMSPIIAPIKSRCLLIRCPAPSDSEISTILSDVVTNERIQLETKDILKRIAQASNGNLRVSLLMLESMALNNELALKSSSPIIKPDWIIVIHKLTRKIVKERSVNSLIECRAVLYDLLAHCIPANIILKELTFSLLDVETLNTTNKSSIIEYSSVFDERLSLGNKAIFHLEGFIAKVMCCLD
T2 sequence (P40348 whole entry, one chain of several, further chain): as the sequence (P40348 whole entry, one chain of several, further chain) above
T2 sequence (P38251 whole entry, one chain of several, further chain): as the sequence (P38251 whole entry, one chain of several, further chain) above

On to `Nc1ncnc2c1ncn2[C@@H]1O[C@H](COP(=O)(O)OP(=O)(O)O)[C@@H](O)[C@H]1O` [ADP], for which the “cryo-EM structure, 3.2 Å” value with Elg1-RFC [1] (setting [7]) is “four ATPγS in Rfc2, Rfc3, Rfc4, and Elg1, and one ADP in Rfc5”. The “cryo-EM structure, 3.3 Å (closed PCNA) and 3.7 Å (cracked PCNA)” value in the series with Elg1-RFC–PCNA (setting [7]) was “In all three Elg1-RFC structures, we found five bound nucleotides”.

As to `Nc1ncnc2c1ncn2[C@@H]1O[C@H](COP(=O)(O)OP(=O)(O)NP(=O)(O)O)[C@@H](O)[C@H]1O` [AMP-PNP], the “32P-PCNA unloading from nicked plasmid, gel filtration” value in the series on Elg1-RFC [2] is listed as “Elg1-RFC can unload PCNA from DNA with non-hydrolyzable AMP-PNP”.

Turning to `Nc1ncnc2c1ncn2[C@@H]1O[C@H](COP(=O)(O)OP(=O)(O)OP(O)(O)=S)[C@@H](O)[C@H]1O` [ATPγS], in the series on Elg1-RFC [1] (0.5 mM ATPγS final (1 mM in results text), 6.7 mM Mg-acetate, sites in Rfc2, Rfc3, Rfc4 and Elg1, Elg1 site without Mg density), the “cryo-EM structure, 3.2 Å” value is “four ATPγS in Rfc2, Rfc3, Rfc4, and Elg1, and one ADP in Rfc5”. Moreover, the “cryo-EM structure, 3.3 Å (closed PCNA) and 3.7 Å (cracked PCNA)” value with Elg1-RFC–PCNA (0.5 mM ATPγS final (1 mM in results text), 6.7 mM Mg-acetate, sites in Rfc2, Rfc3, Rfc4 and Elg1) is “In all three Elg1-RFC structures, we found five bound nucleotides: four ATPγS in Rfc2, Rfc3”.

B1: proliferating cell nuclear antigen (PCNA), S. cerevisiae (natural protein)
chain: MLEAKFEEASLFKRIIDGFKDCVQLVNFQCKEDGIIAQAVDDSRVLLVSLEIGVEAFQEYRCDHPVTLGMDLTSLSKILRCGNNTDTLTLIADNTPDSIILLFEDTKKDRIAEYSLKLMDIDADFLKIEELQYDSTLSLPSSEFSKIVRDLSQLSDSINIMITKETIKFVADGDIGSGSVIIKPFVDMEHPETSIKLEMDQPVDLTFGAKYLLDIIKGSSLSDRVGIRLSSEAPALFQFDLKSGFLQFFLAPKFNDEE
notes: PCNA, S. cerevisiae sliding clamp; Homotrimeric ring; In the unloading assays the kinase site was labelled with 32P; also called PCNA clamp; PCNA ring
The term stoichiometry N denotes a count of units in the complex or per binding partner. For B1, the binding result in series [3], in series [4] and in series [5] was “binds” each time. Besides, in series [6], the “stoichiometry N” value came out at 3.
